Laboratory results reported in patent publication US20150031655A1, “COMBINATION OF LIVER X RECEPTOR MODULATOR AND ESTROGEN RECEPTOR MODULATOR FOR THE TREATMENT OF AGE-RELATED DISEASES” (UNIVERSITY OF NORTH DAKOTA, priority 2011, published 2015).

What was measured:
LXRβ = target: T1, LXRβ (Homo sapiens, UniProt P55055); test: Western blot of LXRβ levels in the nucleus, SH-SY5Y cells; type: cell-based; design: endogenous in cells; host or cells: SH-SY5Y human neuroblastoma cells; conditions: for LXRβ protein levels in the nucleus: 24 h, treatment alone vs control
T1 sequence (P55055 1-460): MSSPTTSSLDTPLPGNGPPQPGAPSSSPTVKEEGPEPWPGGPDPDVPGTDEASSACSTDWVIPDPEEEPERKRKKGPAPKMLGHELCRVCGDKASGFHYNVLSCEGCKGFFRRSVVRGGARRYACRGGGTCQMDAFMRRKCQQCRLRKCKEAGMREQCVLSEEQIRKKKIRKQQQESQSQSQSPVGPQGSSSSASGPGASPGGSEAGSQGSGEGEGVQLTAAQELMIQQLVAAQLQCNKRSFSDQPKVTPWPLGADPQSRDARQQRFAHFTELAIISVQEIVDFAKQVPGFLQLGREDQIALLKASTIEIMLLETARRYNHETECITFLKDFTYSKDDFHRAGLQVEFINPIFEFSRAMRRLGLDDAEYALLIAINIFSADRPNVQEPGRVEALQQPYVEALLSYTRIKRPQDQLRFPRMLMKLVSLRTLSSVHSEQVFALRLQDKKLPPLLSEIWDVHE
Description: (§1) Human neuroblastoma SH-SY5Y cells were grown in DMEM/F12 medium containing 10% fetal bovine serum (FBS) and 1% antibiotic/antimycotic mix. Cells were maintained at 37° C. in a saturated humidity atmosphere containing 95% air and 5% CO2.
(§2) Treated SH-SY5Y cells were washed with PBS and trypsinized to collect the cells and centrifuged at 5000 g. The pellet was washed again with PBS and homogenized in NE-PER tissue protein extraction reagent (Thermo Scientific, Rockford, Ill.) supplemented with protease and phosphatase inhibitors. Protein concentrations from the cytosolic and nuclear homogenates were determined with BCA protein assay.
(§3) Proteins (10 μg) were separated on SDS-PAGE gels, transferred to a polyvinylidene difluoride membrane (BioRad, Hercules, Calif.), and incubated with the following monoclonal antibodies: anti-TH mouse antibody (1:1000; Sigma Aldrich, Saint Louis, Mo.), anti-α-synuclein mouse antibody (1:500; Chemicon, Temecula, Calif.), anti-ERα rabbit antibody (1:500; Abcam, Cambridge, Mass.), anti-ERβ rabbit antibody (1:200; Upstate, Lake Placid, N.Y.), anti-LXRα rabbit antibody (1:500; Abcam, Cambridge, Mass.), anti-LXRβ mouse antibody (1:500; Abcam, Cambridge, Mass.).
(§4) β-actin and Lamin A were used as a gel loading control for cytosolic homogenates and nuclear homogenates respectively. The blots were developed with enhanced chemiluminescence (Immmun-star HRP chemiluminescent kit, Bio-Rad, Hercules, Calif.). Bands were visualized on a polyvinylidene difluoride membrane and analyzed by LabWorks 4.5 software on a UVP Bioimaging System (Upland, Calif.). Quantification of results was performed by densitometry and the results analyzed as total integrated densitometric values (arbitrary units).

TH = test: Western blot of TH protein levels in SH-SY5Y neuroblastoma cells; type: cell-based, human; conditions: for TH protein levels / TH expression: 24 h, treatment alone vs control (10 μM 27-OHC, 1 nM estradiol, 10 μM GW3965, 10 μM ECHS)
Description: as §1, §2, §3, §4

α-synuclein = test: Western blot of α-synuclein protein levels in SH-SY5Y cells; type: cell-based, human; conditions: for increase in α-synuclein protein / expression levels / 27-OHC-induced increase in α-synuclein protein levels: 24 h; for 27-OHC-induced increase in α-synuclein protein levels: co-treatment with 10 μM 27-OHC
Description: as §1, §2, §3, §4

LXRα = target: T2, LXRα (Homo sapiens, UniProt Q13133); test: Western blot of LXRα levels in the nucleus, SH-SY5Y cells; type: cell-based; conditions: for LXRα protein levels in the nucleus: 24 h, treatment alone vs control; for 27-OHC-induced increase in LXRα in the nucleus: co-treatment with 10 μM 27-OHC
T2 construct: endogenous in cells; host or cells: SH-SY5Y human neuroblastoma cells
T2 sequence (Q13133 1-447): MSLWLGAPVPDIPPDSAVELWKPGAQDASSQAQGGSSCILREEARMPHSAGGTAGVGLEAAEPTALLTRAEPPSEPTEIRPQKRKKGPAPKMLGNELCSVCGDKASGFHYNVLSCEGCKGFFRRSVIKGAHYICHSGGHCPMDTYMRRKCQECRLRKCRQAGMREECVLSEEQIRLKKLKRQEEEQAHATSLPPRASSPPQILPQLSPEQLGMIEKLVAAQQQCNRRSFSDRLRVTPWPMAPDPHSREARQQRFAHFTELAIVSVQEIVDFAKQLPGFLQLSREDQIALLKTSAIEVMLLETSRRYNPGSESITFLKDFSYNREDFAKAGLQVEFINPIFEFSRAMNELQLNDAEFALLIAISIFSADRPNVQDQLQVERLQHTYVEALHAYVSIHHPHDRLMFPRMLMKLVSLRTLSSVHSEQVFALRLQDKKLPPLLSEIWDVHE
Description: as §1, §2, §3, §4

LXRβ protein levels in the nucleus (LXRβ) | LXRα protein levels in the nucleus (LXRα) | 27-OHC-induced increase in LXRβ in the nucleus (LXRβ; co-treatment with 10 μM 27-OHC) | 27-OHC-induced increase in LXRα in the nucleus (LXRα) | SMILES | TH protein levels / TH expression (TH) | increase in α-synuclein protein / expression levels (α-synuclein; treatment alone vs control) | effect of estradiol on 27-OHC-induced decrease in TH expression (TH; ECHS added to 27-OHC+estradiol) | TH expression (TH; in combination with estradiol) | 27-OHC-induced increase in α-synuclein protein levels (α-synuclein) | basal α-synuclein expression levels (α-synuclein; treatment alone vs control)
reduced | reduced | significantly attenuated | significantly attenuated | CC(C)CCC[C@@H](C)[C@H]1CC[C@H]2[C@@H]3C[C@@H]4O[C@@]45C[C@@H](OS(=O)(=O)O)CC[C@]5(C)[C@H]3CC[C@]12C [ECHS, 5α,6α-epoxycholesterol-3-sulfate] | no effect |  | does not alter | no effect | significantly attenuated | does not produce any effect
more pronounced increase | more pronounced increase |  | to the same extent | Cl.O=C(O)Cc1cccc(OCCCN(Cc2cccc(C(F)(F)F)c2Cl)CC(c2ccccc2)c2ccccc2)c1 [GW3965, 3-[3-[N-(2-Chloro-3-trifluoromethylbenzyl)-(2,2-diphenylethyl)amino]propyloxy]phenylacetic acid hydrochloride] | no effect | 3 fold |  |  | accentuates | 

SMILES | LXRβ protein levels in the nucleus (LXRβ) | LXRα protein levels in the nucleus (LXRα) | 27-OHC-induced increase in LXRβ in the nucleus (LXRβ; co-treatment with 10 μM 27-OHC) | 27-OHC-induced increase in LXRα in the nucleus (LXRα) | TH protein levels / TH expression (TH) | increase in α-synuclein protein / expression levels (α-synuclein; treatment alone vs control) | effect of estradiol on 27-OHC-induced decrease in TH expression (TH; ECHS added to 27-OHC+estradiol) | TH expression (TH; in combination with estradiol) | 27-OHC-induced increase in α-synuclein protein levels (α-synuclein) | basal α-synuclein expression levels (α-synuclein; treatment alone vs control)
C[C@@H](CO)CCC[C@@H](C)[C@H]1CC[C@H]2[C@@H]3CC=C4C[C@@H](O)CC[C@]4(C)[C@H]3CC[C@]12C [27-OHC, 27-hydroxycholesterol] | increases | increases |  |  | significant decrease | 2.3 fold |  |  |  | 
